Patent US6924314B2, “Compounds for the treatment of metabolic disorders” (Wellstat Therapeutics Corporation, priority 2001, dated 2005)

Legend:
ob/ob mice = test: Hyperglycemia, hyperlipidemia, fatty liver disease and weight gain in ob/ob obese diabetic mice, daily oral dosing; assay type: in vivo, C57BL/6 mice; settings: for Free Fatty Acids ± SEM / Glucose ± SEM / Triglycerides ± SEM / ALT (U/L) ± SEM / AST (U/L) ± SEM / SDH (U/L) ± SEM: 4 weeks; for ALT (U/L) ± SEM / AST (U/L) ± SEM / SDH (U/L) ± SEM: serum
Source text: Ob/ob mice have a defect in the gene for leptin, a protein involved in appetite regulation and energy metabolism, and are hyperphagic, obese, and insulin resistant. They develop hyperglycemia and fatty liver.

[1] = test system: ob/ob obese diabetic mice; test: Acute hypoglycemic effect in ob/ob obese diabetic mice: Expt 2; assay type: in vivo; settings: single oral dose 250 mg/kg
Experimental: Male ob/ob mice (50-55 grams; blood glucose ˜300 mg/dL) were divided into groups of five animals each, and given a single oral dose of test drug (250 mg/kg) suspended in 0.5% carboxymethylcellulose vehicle; a control group received oral vehicle alone.
Six hours after oral administration of test drugs or vehicle (control), blood samples were obtained from a tail vein and glucose content was determined with a glucometer.

db/db mice [2] = test: Antidiabetic effects in db/db mice, four weeks of daily oral dosing; assay type: in vivo; settings: for Glucose / Glucose (% of Control): 150 mg/kg daily oral, four weeks; for blood glucose: after four weeks of daily oral dosing (Compound AW, BH 150 mg/kg; pioglitazone 100 mg/kg)
Source text: Db/db mice have a defect in leptin signaling, leading to hyperphagia, obesity and diabetes. Moreover, unlike ob/ob mice which have relatively robust islets, their insulin-producing pancreatic islet cells undergo failure during chronic hyperglycemia, so that they transition from hyperinsulinemia (associated with peripheral insulin resistance) to hypoinsulinemic diabetes.
Male db/db mice were given daily oral treatments with vehicle (0.75% hydroxypropylmethylcellulose) or antidiabetic compounds as indicated below. Blood samples were obtained via the retro-orbital sinus for serum chemistry analysis, or via the tail vein for glucose measurement with a test strip and glucometer.
The dose of pioglitazone used in this experiment was reported in the literature to be a maximally-effective dose for treatment of db/db mice (Shimaya et al. (2000), Metabolism 49:411-7).

[3] = test system: Zucker Diabetic Fatty (ZDF) rats; test: Attenuation of cataractogenesis in Zucker Diabetic Fatty (ZDF) rats; assay type: in vivo; settings: 100 mg/kg daily oral, 10 weeks
Source text: Cataracts are one of the leading causes of progressive vision decline and blindness associated with ageing and diabetes, and the Zucker diabetic fatty (ZDF) model has many similarities with human cataractogenesis, including biochemical changes and oxidative stress in the lens. These rats, however, undergo cataractogenesis typically between 14-16 weeks of age.
Male ZDF rats and their aged-match Zucker lean (ZL) counterparts (fa/+ or +/+) were obtained from Genetic Models, Inc. (Indianapolis, Ind.) aged 12 weeks and acclimatized for 1 week prior to study. […] Treatment cohorts were given a daily oral dose of vehicle and 100 mg/kg of BI or BH for 10 weeks. […] At the end of the treatment period 100 μl of venous blood was collected (usually 10:00 A.M.) in a heparinized tube from the tail vein for serum chemistry analysis (Anilytics, Inc., Gaithersburg, Md.). […] Plasma insulin was measured by an electrochemiluminescent immunoassay, ECL (Origen Analyzer, Igen, Inc., Gaithersburg, Md.). The animals were sacrificed and tissues and/or organs (lens and liver) were extirpated, weighed (wet weight) and processed for biochemical analyses. Malondialdehyde (MDA), a major product of lipid peroxidation was assayed in lenses according to Ohkawa et al (1979), Analytical Biochem 95, 351-358).

db/db mice [4] = test: Antidiabetic effects in db/db mice, second experiment, 8 weeks of treatment; assay type: in vivo; settings: 20 mg/kg, 8 weeks of treatment
Source text: Blood samples were obtained via the retro-orbital sinus for serum chemistry analysis, or via the tail vein for glucose measurement with a test strip and glucometer.
Groups consisted of 6-8 mice each.

[5] = test system: high fat-fed C57Bl/6J mice; test: Circulating triglycerides, free fatty acids, insulin and leptin in high fat-fed C57Bl/6J mice; assay type: in vivo; settings: after 2 weeks of drug treatments
Source text: The high fat-fed mouse is a model for the hypertriglyceridemia and high circulating fatty acid levels, and the insulin and leptin resistance that are found in people at risk for and with obesity, diabetes, cardiovascular disease and other disorders. Male C57Bl/6J mice, approximately 8 weeks of age, were randomly assigned into groups of 6 animals. […] Mice were fed a high-fat diet (diet number D12451, containing 45% of calories as fat (Research Diets, New Brunswick, N.J.)) for 6 weeks. […]

[6] = 3 mg/kg/day, four week treatment period
[7] = 10 mg/kg/day, four week treatment period
[8] = 30 mg/kg/day, four week treatment period

SMILES: O=C(O)CCC(=O)c1cccc(OCc2c(F)cccc2F)c1 [Compound AW, 4-(3-(2,6-Difluorobenzyloxy)phenyl)-4-oxobutyric acid]
- Mean body weight gain (grams) (ob/ob mice; [6]): +7.3 grams
- Free Fatty Acids ± SEM (ob/ob mice; 10 mg/kg/day oral): 3697.4 ± 357.8 µmol/L
- Glucose ± SEM (ob/ob mice; 10 mg/kg/day oral): 369.6 ± 62.5 mg/dL
- Triglycerides ± SEM (ob/ob mice; 10 mg/kg/day oral): 115.6 ± 7.8 mg/dL
- Mean body weight gain (grams) (ob/ob mice; [7]): +6.7 grams
- Free Fatty Acids ± SEM (ob/ob mice; 30 mg/kg/day oral): 2552.2 ± 334.7 µmol/L
- Glucose ± SEM (ob/ob mice; 30 mg/kg/day oral): 280.2 ± 46.7 mg/dL
- Triglycerides ± SEM (ob/ob mice; 30 mg/kg/day oral): 96.4 ± 7.3 mg/dL
- Mean body weight gain (grams) (ob/ob mice; [8]): +6.4 grams
- Free Fatty Acids ± SEM (ob/ob mice; 100 mg/kg/day oral): 1476 ± 82.1 µmol/L
- Glucose ± SEM (ob/ob mice; 100 mg/kg/day oral): 286 ± 47.1 mg/dL
- Triglycerides ± SEM (ob/ob mice; 100 mg/kg/day oral): 66.2 ± 5.9 mg/dL
- Mean body weight gain (grams) (ob/ob mice; 100 mg/kg/day, four week treatment period): +3.4 grams
- Free Fatty Acids ± SEM (ob/ob mice; 150 mg/kg/day oral): 1481 ± 158.8 µmol/L
- Glucose ± SEM (ob/ob mice; 150 mg/kg/day oral): 188.6 ± 28.8 mg/dL
- Triglycerides ± SEM (ob/ob mice; 150 mg/kg/day oral): 72.6 ± 5.6 mg/dL
- Mean body weight gain (grams) (ob/ob mice; 150 mg/kg/day, four week treatment period): +4.6 grams
- Free Fatty Acids ± SEM (ob/ob mice; 300 mg/kg/day oral): 1452.6 ± 111.1 µmol/L
- Glucose ± SEM (ob/ob mice; 300 mg/kg/day oral): 128.4 ± 8.8 mg/dL
- Triglycerides ± SEM (ob/ob mice; 300 mg/kg/day oral): 63.6 ± 3.4 mg/dL
- Mean body weight gain (grams) (ob/ob mice; 300 mg/kg/day, four week treatment period): −0.7 grams
- blood glucose (ob/ob mice; daily oral doses, compared with pioglitazone and rosiglitazone): reduction in blood glucose comparable to that achieved with pioglitazone and rosiglitazone
- liver fat droplets (liver histology) (ob/ob mice; daily treatment for 4 weeks): marked reduction in liver fat droplets
- serum triglycerides and fatty acids (ob/ob mice; doses of 100 to 300 mg/kg/day, versus comparators at their optimum antihyperglycemic doses): reduced serum triglycerides and fatty acids better than did either rosiglitazone or pioglitazone
- serum liver enzymes (ALT, AST, SDH) (ob/ob mice; doses ranging from 30 mg/kg/day to 300 mg/kg/day): dose-dependent decrease in serum liver enzymes
- weight gain relative to vehicle-treated mice (ob/ob mice; four week treatment period): dose-dependent attenuation of weight gain
- ALT (U/L) ± SEM (ob/ob mice; 10 mg/kg/day oral): 483.8 ± 81.9 U/L
- AST (U/L) ± SEM (ob/ob mice; 10 mg/kg/day oral): 653.4 ± 104.8 U/L
- SDH (U/L) ± SEM (ob/ob mice; 10 mg/kg/day oral): 626.8 ± 93.8 U/L
- ALT (U/L) ± SEM (ob/ob mice; 30 mg/kg/day oral): 320.2 ± 46.2 U/L
- AST (U/L) ± SEM (ob/ob mice; 30 mg/kg/day oral): 399.6 ± 74.4 U/L
- SDH (U/L) ± SEM (ob/ob mice; 30 mg/kg/day oral): 333.0 ± 66.9 U/L
- ALT (U/L) ± SEM (ob/ob mice; 100 mg/kg/day oral): 202.8 ± 38.0 U/L
- AST (U/L) ± SEM (ob/ob mice; 100 mg/kg/day oral): 143.8 ± 30.4 U/L
- SDH (U/L) ± SEM (ob/ob mice; 100 mg/kg/day oral): 121.2 ± 14.1 U/L
- ALT (U/L) ± SEM (ob/ob mice; 150 mg/kg/day oral): 149.2 ± 15.6 U/L
- AST (U/L) ± SEM (ob/ob mice; 150 mg/kg/day oral): 185.8 ± 26.0 U/L
- SDH (U/L) ± SEM (ob/ob mice; 150 mg/kg/day oral): 166.2 ± 20.0 U/L
- ALT (U/L) ± SEM (ob/ob mice; 300 mg/kg/day oral): 188.2 ± 10.3 U/L
- AST (U/L) ± SEM (ob/ob mice; 300 mg/kg/day oral): 335.4 ± 44.8 U/L
- SDH (U/L) ± SEM (ob/ob mice; 300 mg/kg/day oral): 207.0 ± 29.3 U/L
- Blood Glucose after 6 hours [1]: 143 ± 15 mg/dL
- Glucose (db/db mice [2]): 313 ± 34 mg/dL
- Glucose (% of Control) (db/db mice [2]): 56 ± 6 % of Control
- blood glucose (db/db mice [2]): significant reduction in blood glucose

SMILES: O=C(O)CCC(=O)c1cccc(OCC2CC2)c1 [Compound BH, 4-(3-((Cyclopropyl)-methoxy)phenyl)-4-oxobutyric acid]
- Glucose (db/db mice [2]): 229 ± 49 mg/dL
- Glucose (% of Control) (db/db mice [2]): 41 ± 9 % of Control
- blood glucose (db/db mice [2]): significant reduction in blood glucose
- % Protection Left Eye [3]: 33%
- % Protection Right Eye [3]: 17%
- Cataract Formation Left Eye [3]: 4/6
- Cataract Formation Right Eye [3]: 5/6
- Lenticular MDA ([3]; means ± SEM): 1.9 ± 0.2 nmol/g lens
- Size (mm) Left Lens ([3]; means ± SEM): 2.5 ± 0.3 mm
- Size (mm) Right Lens ([3]; means ± SEM): 2.1 ± 0.4 mm
- Weight (mg) Left Lens ([3]; means ± SEM): 27.0 ± 7.2 mg
- Weight (mg) Right Lens ([3]; means ± SEM): 20.0 ± 6.6 mg

SMILES: CN(CCOc1ccc(CC2SC(=O)NC2=O)cc1)c1ccccn1 (centres unmarked) [Rosiglitazone, rosiglitazone, reference compound]
- Free Fatty Acids ± SEM (ob/ob mice; 1 mg/kg/day oral): 2090.75 ± 67.7 µmol/L
- Glucose ± SEM (ob/ob mice; 1 mg/kg/day oral): 142.75 ± 8.8 mg/dL
- Triglycerides ± SEM (ob/ob mice; 1 mg/kg/day oral): 109.75 ± 4.4 mg/dL
- Mean body weight gain (grams) (ob/ob mice; 1 mg/kg/day, four week treatment period): +8.2 grams
- Free Fatty Acids ± SEM (ob/ob mice; 3 mg/kg/day oral): 2317.6 ± 85.3 µmol/L
- Glucose ± SEM (ob/ob mice; 3 mg/kg/day oral): 190.2 ± 12.7 mg/dL
- Triglycerides ± SEM (ob/ob mice; 3 mg/kg/day oral): 107.8 ± 3.8 mg/dL
- Mean body weight gain (grams) (ob/ob mice; [6]): +8.5 grams
- Free Fatty Acids ± SEM (ob/ob mice; 10 mg/kg/day oral): 2606.4 ± 139.2 µmol/L
- Glucose ± SEM (ob/ob mice; 10 mg/kg/day oral): 188.2 ± 21.4 mg/dL
- Triglycerides ± SEM (ob/ob mice; 10 mg/kg/day oral): 111.2 ± 7.5 mg/dL
- Mean body weight gain (grams) (ob/ob mice; [7]): +11.0 grams
- Free Fatty Acids ± SEM (ob/ob mice; 30 mg/kg/day oral): 1983.4 ± 66.1 µmol/L
- Glucose ± SEM (ob/ob mice; 30 mg/kg/day oral): 174.6 ± 11.5 mg/dL
- Triglycerides ± SEM (ob/ob mice; 30 mg/kg/day oral): 95.2 ± 4.8 mg/dL
- Mean body weight gain (grams) (ob/ob mice; [8]): +12.0 grams
- Glucose (db/db mice [4]): 343 ± 38 mg/dL
- Triglycerides (db/db mice [4]): 89 ± 16 mg/dL
- Free Fatty Acids ([5]; 1 mg/kg oral gavage): 1537 ± 256.3 µmol/L
- Triglycerides ([5]; 1 mg/kg oral gavage): 76.6 ± 16.5 mg/dL
- Free Fatty Acids ([5]; 3 mg/kg oral gavage): 1833.2 ± 169.8 µmol/L
- Triglycerides ([5]; 3 mg/kg oral gavage): 103.2 ± 10.8 mg/dL
- Free Fatty Acids ([5]; 10 mg/kg oral gavage): 1810.3 ± 595 µmol/L
- Triglycerides ([5]; 10 mg/kg oral gavage): 129.5 ± 48.7 mg/dL
- Free Fatty Acids ([5]; 100 mg/kg oral gavage): 1568.5 ± 197 µmol/L
- Triglycerides ([5]; 100 mg/kg oral gavage): 88 ± 7.2 mg/dL
